How the values were obtained:
CXCR4 = CXCR4 (Homo sapiens, UniProt P61073); settings: 1p M AMD3465 beginning at day 0 of iDiscoid culture; day 5
Procedure: (§1) Signaling Pathway Inhibition. BMP4 signaling was inhibited via application of 3 μM Dorsomorphin into the normal media at day 3 of iDiscoid culture. NODAL signaling was inhibited via application of 10 μM SB431542 beginning at day 2 of iDiscoid culture. CXCR4 signaling was inhibited via application of 1p M AMD3465 beginning at day 0 of iDiscoid culture.

iGATA6 cells = assay: Dox induction of GATA6 gene circuit in iGATA6 hiPSCs; assay type: cell-based, human; settings: after treatment with Dox
Procedure: Generation of iDiscoid. The GATA6-engineered hiPSCs were seeded at a ratio of 4:1 with rtTA expressing hiPSCs either containing or lacking an mKate reporter gene at a total density of 25,000 cells per cm^2 in mTeSR-1 supplemented with […] Y-27632. The next day, the medium was changed to mTeSR-1 with […] doxycycline to induce expression of the GATA6 transgene and replaced daily for up to 5 days.
Time lapse Imaging. iGATA6 cells were seeded at 25,000 cells per cm^2 in a Cellstar 24-well tissue culture treated plate coated […], then induced with 1,000 ng ml^−1 Dox. After induction, the cells were placed under an Incucyte S3 live cell imaging platform at 37C and 5% CO2. Images were taken every 30 min for 3 days.

NODAL signaling [1] = assay: NODAL signaling inhibition in iDiscoid culture, immunofluorescence; assay type: cell-based, human; settings: 10 μM SB431542 beginning at day 2 of iDiscoid culture
Procedure: as §1
Staining on glass coverslips. Cells were grown on Matrigel-coated 8 mm diameter circular glass coverslips or on Mattek 35 mm coverslip bottom dishes. Cultures were fixed for 10 minutes in 4% paraformaldehyde (Electron Microscopy Sciences) at room temperature. For toluidine blue staining in FIG. 12B, cells were fixed for 1 hour in 2.5% glutaraldehyde in 0.01M PBS, pH 7.4, at room temperature. Coverslips were then washed three times with PBS followed by 15 minutes permeabilization with 0.2% Triton X-100 in PBS. Subsequently the coverslips were washed three times in washing buffer (0.05% Tween-20 in PBS) for 5 minutes and blocked for 20 minutes in […] wash buffer plus 5% normal donkey serum (Jackson ImmunoResearch Laboratories). The primary antibodies were diluted in 5% normal donkey serum in PBS and incubated with the tissues […] at room temperature followed by three washes in wash buffer for 5 minutes each. The secondary antibodies were diluted in 5% normal donkey serum in PBS and incubated with the tissues 1 hour at room temperature followed by three washes in wash buffer for 5 minutes each. Afterwards, the 8 mm coverslips were mounted on microscopy glass slides using ProLong Glass Antifade (Life Technologies), cured overnight at room temperature and then sealed with nail polish. Coverslips in Mattek dishes were stored in PBS at 4° C. for 3D imaging prior to mounting.
Image Acquisition and Processing. Images were acquired using the EVOS M700 automated scanning microscope, Leica SP8 confocal microscope, or Nikon A1 Confocal microscope and processed using ImageJ software (NIH). Any contrast adjustments were made in individual channels and applied evenly across the whole image in that channel. Contrast and color balance for color images was applied evenly across the whole image. 3D reconstructions were generated using the Nikon A1 confocal microscope to generate z-stacks spanning ˜100 um deep into the tissues and using ImageJ or Imaris (Bitplane) to construct a 3D volume from the stacks.

NODAL signaling [2] = assay: Day 4 scRNAseq of iDiscoid after SB431542 application at day 2; assay type: cell-based, human
BMP4 = molecular target: T1, BMP4 (Homo sapiens, UniProt P12644); settings: cited from earlier work
T1 sequence (P12644 293-408): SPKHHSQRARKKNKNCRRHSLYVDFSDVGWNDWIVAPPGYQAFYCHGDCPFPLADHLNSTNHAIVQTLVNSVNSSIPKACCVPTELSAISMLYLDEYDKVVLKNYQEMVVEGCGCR

NODAL = molecular target: T2, NODAL (Homo sapiens, UniProt Q96S42); settings: cited from earlier work
T2 sequence (Q96S42 238-347): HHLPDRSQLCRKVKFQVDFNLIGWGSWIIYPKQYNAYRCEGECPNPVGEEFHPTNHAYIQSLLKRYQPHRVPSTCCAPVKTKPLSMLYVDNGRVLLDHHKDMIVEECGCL

BMP2 = molecular target: T3, BMP2 (Homo sapiens, UniProt P12643); settings: cited from earlier work
T3 sequence (P12643 283-396): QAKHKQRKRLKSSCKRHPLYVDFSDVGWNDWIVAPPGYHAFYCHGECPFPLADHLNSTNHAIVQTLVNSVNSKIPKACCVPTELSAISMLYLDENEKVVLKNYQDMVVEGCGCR

[3] = day 4, SB431542 applied at day 2

Sequence of CXCR4 (P61073 whole entry): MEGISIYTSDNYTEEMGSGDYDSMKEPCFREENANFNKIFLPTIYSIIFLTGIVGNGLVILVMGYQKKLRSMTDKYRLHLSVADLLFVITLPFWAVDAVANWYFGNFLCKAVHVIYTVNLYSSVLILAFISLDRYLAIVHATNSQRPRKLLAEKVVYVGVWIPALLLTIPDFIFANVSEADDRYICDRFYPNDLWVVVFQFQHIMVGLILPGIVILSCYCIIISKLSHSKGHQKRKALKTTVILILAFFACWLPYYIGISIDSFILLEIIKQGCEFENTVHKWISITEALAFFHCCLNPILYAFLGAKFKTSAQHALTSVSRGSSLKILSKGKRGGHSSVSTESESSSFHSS

## c1ccc(CNCc2ccc(CN3CCCNCCNCCCNCC3)cc2)nc1 [AMD3465]
CXCR4
  upward migration and contiguous iGATA6 membrane formation: substantially inhibits

## C[C@H]1c2cccc(O)c2C(=O)C2=C(O)[C@]3(O)C(=O)C(C(N)=O)=C(O)[C@@H](N(C)C)[C@@H]3[C@@H](O)[C@@H]21 [Dox, Doxycycline]
iGATA6 cells
  EGFP expression in iGATA6 cells: upregulate
  pluripotency marker NANOG in iGATA6 cells: loss

## NC(=O)c1ccc(-c2nc(-c3ccc4c(c3)OCO4)c(-c3ccccn3)[nH]2)cc1 [SB431542]
NODAL signaling [1]
  ISL1-expressing cells within iDiscoids / ISL1 expression: lost
  cavity formation / cavity morphology: maintained
  expression of NANOG within the WT clusters: lost
NODAL signaling [1]; listed as SB431542
  ISL1-expressing cells within iDiscoids / ISL1 expression: substantial elimination
  cavity formation / cavity morphology: preserved
NODAL signaling [1]; listed as SB431562
  expression of NANOG within the WT clusters: substantially decreased
NODAL signaling [2]; SB431542 added to the media
  system state after addition to the culture media: acquire and maintain a state similar to early human and primate amnion
NODAL signaling [2]; [3]
  NANOG expression within the WT (scRNAseq): lost
  pluripotency markers SOX2 and OCT4 within the WT (scRNAseq): retained
NODAL signaling [2]; day 4, SB431542 applied at day 2, alongside CDX2, GATA3, AP-2γ
  expression of the amnion marker ISL1 (scRNAseq): present in cluster 2

B1: human CER1: human Cerberus ortholog, cerberus 1 (CER1) polypeptide (protein, UniProt O95813 18-267, looked up)
Cerberus: TRHQDGRQNQSSLSPVLLPRNQRELPTGNHEEAEEKPDLFVAVPHLVATSPAGEGQRQREKMLSRFGRFWKKPEREMHPSRDSDSEPFPPGTQSLIQPIDGMKMEKSPLREEAKKFWHHFMFRKTPASQGVILPIKSHEVHWETCRTVPFSQTITHEGCEKVVVQNNLCFGKCGSVHFPGAAQHSHTSCSHCLPAKFTTMHLPLNCTELSSVIKVVMLVEECQCKVKTEHEDGHILHAGSQDSFIPGVSA
BMP4
  affinity for BMP4: minimal affinity
NODAL
  affinity for NODAL: high affinity
BMP2
  affinity for BMP2: minimal affinity
